Measured values: US10703751B2, “Amino-imidazopyridine derivatives as Janus kinase inhibitors and pharmaceutical use thereof” (LEO Pharma A/S, priority 2017, dated 2020)
pEC50, pIC50: −log10 of the molar value. Values after ≈ are worked out from the molar mass of the structure shown. “Also recorded” adds a separate entry of the source.

Legend:
STAT6 bla-RA1 cells = experiment: STAT6 assay (IL-4 stimulated reporter cells); format: cell-based; conditions: for pEC50: interleukin 4 10 ng/mL; for STAT5/STAT6 EC50 ratio (selectivity for STAT6 over STAT5): selectivity for STAT6 over STAT5, from EC50
Experimental: Twenty-five μL of a STAT6 bla-RA1 (Invitrogen # K1243) cell suspension was seeded with a density of 30-40,000 cells/well in 384-well Black View-plates (PerkinElmer #6007460) with clear bottom in assay medium (Opti-MEM (Invitrogen #11058-021)+0.5% heat inactivated fetal bovine Serum (Invitrogen #10082-147)+1% non-essential amino acids (Invitrogen #11140-050)+1% sodium pyruvate (Invitrogen #11360-070)+1% penicillin/streptomycin (Invitrogen #15140-122)); containing 550 ng/mL of CD40 ligand (Invitrogen # PHP0025). The cell plates were incubated overnight in a humidified 37° C. air/CO2 (95%/5%) incubator. The following day, 125 nL of solutions of test compounds and reference compounds were transferred to cell plates using the Labcyte Echo 550 liquid handler. The plates were then incubated for 1 h in a humidified 37° C. air/CO2 (95%/5%) incubator. Hereafter recombinant human interleukin 4 (Invitrogen # PHC0045) were added to the plates also using the Labcyte Echo 550 to a final concentration of 10 ng/mL. The cells were then incubated for 4½-5 h in a humidified 37° C. air/CO2 (95%/5%) incubator. 8 μL of LiveBLAzer substrate mixture (Invitrogen # K1095) were then added to the assay plates, which were incubated overnight at RT. Fluorescence was then measured: Excitation: 405 nm; Emission: 460 nm (green channel), Emission: 535 nm (blue channel). Background was subtracted in both emission channels and the ratio 460/535 nm was calculated for each well.

[1] = molecular target: panel of 23 Tyrosine kinases, including JAK1, and 68 Serine and Threonine kinases; experiment: Kinase selectivity panel at CARNA Biosciences; format: biochemical; conditions: inhibitor concentration approximately 1000 times JAK1 EC50
Experimental: The kinase selectivity profiles of Example 3 of the present invention as well as Examples 644 and 641 of WO2011086053 were evaluated at CARNA Biosciences Inc. with a panel consisting of 23 Tyrosine kinases, including JAK1 (ABL, CSK, EGFR, EPHA2, EPHB1, EPHB4, FGFR1, FLT3, IGF1R, ITK, JAK1, JAK3, KDR, […], PDGFRα, PDGFRβ, PYK2, SRC, TIE2, TRKA and TYRO3) as well as 68 Serine and Threonine kinases ([…], AKT1, AMPKα1/β1/γ1, AurA, AurB, AurC, BRSK2 ([ATP]=Km value), CaMK1a ([ATP]=Km value), CaMK2a ([ATP]=Km value), CaMK4, CDC2/CycB1, CDC7/ASK, CDK2/CycA2, CDK2/CyE1, CDK3/CyE1 ([ATP]=Km value), CDK4/CyD3, CDK6/CyD3, CDK7/CycH/MAT1, CDK9/CycT1, CHK1, CK1ε, CK2α1/β, CK2α2/β, CLK1, CLK2, DAPK1, DYRK1B, Erk2, GSK3α, GSK3β, HGK, IKKβ, IRAK4 ([ATP]=Km value), JNK2, LOK ([ATP]=Km value), MAPKAP2, MLK1, MLK2, MNK2 ([ATP]=Km value), MST1, MST2 ([ATP]=Km value), NEK1, NEK2, NEK6, NEK7, NEK9, p38α, p70S6K, PAK1 ([ATP]=Km value), PAK2, PAK5 ([ATP]=Km value), PBK, PDK1, PIM1, PIM2, PKACα, PKCα, OKD2, PKN1 ([ATP]=Km value), PLK1, PLK2 ([ATP]=Km value), ROCK1, RSK1, SGK, skMLCK ([ATP]=Km value) and TSSK1). […] The percentage of inhibition was measured at an inhibitor concentration of approximately 1000 times JAK1 EC50.

CYP2C8 = CYP2C8 (Homo sapiens (Human), UniProt P10632); experiment: Reversible CYP inhibition, 2C8; format: in vitro ADME; conditions: up to 50 μM for Example 3
CYP2C8, sequence (P10632 whole entry): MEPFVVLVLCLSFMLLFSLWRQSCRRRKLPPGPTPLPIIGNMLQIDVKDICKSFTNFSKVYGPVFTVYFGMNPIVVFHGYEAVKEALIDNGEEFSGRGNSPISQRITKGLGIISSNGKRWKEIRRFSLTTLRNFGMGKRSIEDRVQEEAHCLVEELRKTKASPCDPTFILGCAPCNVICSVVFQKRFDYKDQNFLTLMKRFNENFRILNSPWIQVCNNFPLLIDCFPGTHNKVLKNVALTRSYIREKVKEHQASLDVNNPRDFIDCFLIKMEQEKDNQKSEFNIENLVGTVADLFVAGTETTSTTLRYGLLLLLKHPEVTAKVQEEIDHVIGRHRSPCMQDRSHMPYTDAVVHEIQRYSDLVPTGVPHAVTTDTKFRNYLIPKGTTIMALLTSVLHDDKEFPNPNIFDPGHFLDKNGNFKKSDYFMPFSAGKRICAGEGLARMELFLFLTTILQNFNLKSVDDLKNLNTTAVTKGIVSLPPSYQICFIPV
Experimental: (§1) Reversible CYP inhibition, time dependent CYP inhibition (TDI) and CYP induction was tested at Cyprotex PLC according to authority guidance.

CYP2C9 = CYP2C9 (Homo sapiens (Human), UniProt P11712); experiment: Reversible CYP inhibition, 2C9; format: in vitro ADME; conditions: up to 50 μM for Example 3, up to 25 μM for Examples 644 and 641
CYP2C9, sequence (P11712 whole entry): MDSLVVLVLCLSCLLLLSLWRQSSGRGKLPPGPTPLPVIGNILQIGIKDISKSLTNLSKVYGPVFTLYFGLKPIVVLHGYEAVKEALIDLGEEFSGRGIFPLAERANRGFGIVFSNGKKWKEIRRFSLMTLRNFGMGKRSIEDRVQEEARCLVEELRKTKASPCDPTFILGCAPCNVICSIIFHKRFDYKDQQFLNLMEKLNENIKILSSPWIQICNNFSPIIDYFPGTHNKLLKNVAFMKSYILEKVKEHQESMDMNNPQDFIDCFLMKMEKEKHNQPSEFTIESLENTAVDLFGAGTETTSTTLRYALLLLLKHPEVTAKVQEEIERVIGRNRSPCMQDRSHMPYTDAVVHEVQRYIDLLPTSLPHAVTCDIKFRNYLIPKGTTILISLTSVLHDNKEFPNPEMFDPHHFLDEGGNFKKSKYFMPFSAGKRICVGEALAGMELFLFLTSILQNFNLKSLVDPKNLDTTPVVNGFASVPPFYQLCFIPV
Experimental: as §1

CYP2C19 = CYP2C19 (Homo sapiens (Human), UniProt P33261); experiment: Reversible CYP inhibition, 2C19; format: in vitro ADME; conditions: up to 50 μM for Example 3, up to 25 μM for Examples 644 and 641
CYP2C19, sequence (P33261 whole entry): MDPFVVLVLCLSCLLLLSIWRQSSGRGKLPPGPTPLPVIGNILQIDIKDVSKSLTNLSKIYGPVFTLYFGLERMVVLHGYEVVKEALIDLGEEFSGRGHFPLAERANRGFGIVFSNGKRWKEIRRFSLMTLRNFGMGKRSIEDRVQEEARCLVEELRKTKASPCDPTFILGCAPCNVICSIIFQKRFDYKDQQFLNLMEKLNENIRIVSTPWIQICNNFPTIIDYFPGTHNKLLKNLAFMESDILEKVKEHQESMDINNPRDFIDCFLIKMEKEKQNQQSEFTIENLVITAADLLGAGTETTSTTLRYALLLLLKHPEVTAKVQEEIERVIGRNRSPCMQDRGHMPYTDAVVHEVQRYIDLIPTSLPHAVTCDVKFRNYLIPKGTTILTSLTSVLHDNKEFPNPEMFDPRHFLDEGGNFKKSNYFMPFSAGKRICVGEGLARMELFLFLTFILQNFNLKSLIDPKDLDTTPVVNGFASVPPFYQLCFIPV
Experimental: as §1

CYP1A2 = experiment: CYP induction, CYP1A2 mRNA expression; format: in vitro ADME; conditions: human, mean fold shift compared to vehicle, read-out: Fold shift in mRNA expr. (CYP 1A2); for CYP1A2 mRNA fold change vs vehicle at 0.1 μM: >2-fold indicates induction
Experimental: as §1
(§2) Induction of CYP1A2, CYP2B6 and CYP3A4 gene expression can serve as sensitive representative endpoints for activation of aryl hydrocarbon receptor (AhR), […], respectively. Induction of these nuclear receptors was assessed by measuring the increase in mRNA encoding for […], respectively, at relevant concentrations.
(§3) A >2-fold shift indicate CYP Induction.

CYP2B6 gene expression = experiment: CYP induction, CYP2B6 mRNA expression; format: in vitro ADME; conditions: Example 3: up to at least a concentration of 10 μM; Example 644: at 10 μM
Experimental: as §1, §2, §3

CYP2B6 = experiment: CYP induction, CYP2B6 mRNA expression; format: in vitro ADME; conditions: human, mean fold shift compared to vehicle, read-out: Fold shift in mRNA expr. (CYP 2B6)
Experimental: as §1, §2, §3

CYP3A4 gene expression = experiment: CYP induction, CYP3A4 mRNA expression; format: in vitro ADME
Experimental: as §1, §2, §3

CYP3A4 = experiment: CYP induction, CYP3A4 mRNA expression; format: in vitro ADME; conditions: human, mean fold shift compared to vehicle, read-out: Fold shift in mRNA expr. (CYP 3A4)
Experimental: as §1, §2, §3

[2] = Aqueous solubility of crystalline material; format: physicochemical; conditions: aqueous medium, aqueous buffer, thermodynamic from solid
Experimental: The aqueous solubility of crystalline Example 3, Example 644 and 641 of WO2011086053 at different pH's was evaluated.

SMILES | pEC50 (STAT6 bla-RA1 cells) | STAT5/STAT6 EC50 ratio (selectivity for STAT6 over STAT5) (STAT6 bla-RA1 cells) | Kinases of the panel inhibited by 50% or more (summary) [1] | Tyrosine kinases inhibited by 50% or more at an ATP concentration of 1 mM (n ≥ 2) [1] | pIC50 (CYP2C9) | pIC50 (CYP2C19) | CYP1A2 mRNA fold change vs vehicle at 0.1 μM (CYP1A2) | CYP1A2 mRNA fold change vs vehicle at 1 μM (CYP1A2) | CYP1A2 mRNA fold change vs vehicle at 10 μM (CYP1A2) | CYP2B6 induction (in words) (CYP2B6 gene expression) | fold change in CYP2B6 mRNA expression vs vehicle at 0.1 μM (CYP2B6) | fold change in CYP2B6 mRNA expression vs vehicle at 1 μM (CYP2B6) | fold change in CYP2B6 mRNA expression vs vehicle at 10 μM (CYP2B6) | CYP3A4 induction (in words) (CYP3A4 gene expression) | CYP3A4 mRNA fold induction vs vehicle at 5 μM (CYP3A4) | CYP3A4 mRNA fold induction vs vehicle at 20 μM (CYP3A4) | CYP3A4 mRNA fold induction vs vehicle at 50 μM (CYP3A4) | solubility ([2]; pH 2.0, crystalline material) [µg/mL] | solubility ([2]; pH 7.4, crystalline material) [µg/mL] | solubility ([2]; pH 9.0, crystalline material) [µg/mL] | further results
CNc1cc2c(cn1)nc([C@@H](C)O)n2[C@H]1CC[C@H](CC#N)CC1 [Example 3, trans-2-[4-[2-[(1R)-1-Hydroxyethyl]-6-(methylamino)imidazo[4,5-c]pyridin-1-yl]cyclohexyl]acetonitrile] | 7.02 | 68 | none of the tested kinases except JAK1 were inhibited by more than 50% | JAK1 | < 4.30 | < 4.30 | 0.8 | 0.7 | 0.8 | does not cause | 1.1 | 1.5 | 1.7 | does not cause CYP3A4 induction up to at least a concentration of 50 μM | 1.2 | 1.5 | 2 | > 346000 | 12300 (≈ 39.2 mM) | 11100 (≈ 35.4 mM) | pIC50 (CYP2C8): < 4.30
C[C@@H](O)c1nc2cnc3[nH]ccc3c2n1[C@H]1CC[C@H](C#N)CC1 [Example 641 of WO2011086053] | 6.75 | 32 | inhibited nine other kinases besides JAK1 by 50% or more | JAK1 and FGFR1 and FLT3 and KDR and PDGFRα | < 4.60 | < 4.60 | 0.9 | 0.8 | 0.9 | – | 1 | 1.3 | 1.4 | causes CYP3A4 induction at a concentration of 20 μM and above | 1.8 | 2.5 | 4 | 90000 (≈ 291 mM) | 2260 (≈ 7.31 mM) | 2280 (≈ 7.37 mM) | Serine and Threonine kinases inhibited by 50% or more (n ≥ 2) [1]: BRSK2, [ATP] = 50 μM; also recorded: LOK, [ATP] = 100 μM; also recorded: MST1, [ATP] = 1 mM; also recorded: MST2, [ATP] = 75 μM; also recorded: PKN1, [ATP] = 25 μM
C[C@@H](O)c1nc2cnc3[nH]ccc3c2n1[C@H]1CC[C@H](CC#N)CC1 [Example 644 of WO2011086053] | 7.98 | – | inhibited nine other kinases besides JAK1 by 50% or more | JAK1 and FGFR1 and FLT3 and KDR and PDGFRα and PDGFRβ | < 4.60 | < 4.60 | – | – | – | CYP2B6 induction at a concentration of 10 μM | – | – | – | causes CYP3A4 induction at a concentration of 10 μM | – | – | – | 2470 (≈ 7.64 mM) | 136 (≈ 0.421 mM) | 9.9 (≈ 0.0306 mM) | Serine and Threonine kinases inhibited by 50% or more (n ≥ 2) [1]: BRSK2, [ATP] = 50 μM; also recorded: LOK, [ATP] = 100 μM; also recorded: MST2, [ATP] = 75 μM; also recorded: PKN1, [ATP] = 25 μM
